Legend:
[1] = xn = mol fraction of the nth substance listed; settings: 101 kPa, Liquid; for speed of sound: Sing-around technique in a fixed-path interferometer; for mass density: Vibrating tube method
[2] = refractive index (Na D-line) (dimensionless); xn = mol fraction of the nth substance listed; settings: 101 kPa, Liquid, Standard Abbe refractometry

CCCC[N+]1(C)CCCC1.O=S(=O)([O-])C(F)(F)F [1-butyl-1-methylpyrrolidinium trifluoromethanesulfonate] + O
Settings	mass density, 288.15 K [kg/m3]	mass density, 298.15 K [kg/m3]	mass density, 308.15 K [kg/m3]	refractive index, 288.15 K	refractive index, 298.15 K	refractive index, 308.15 K	speed of sound, 288.15 K [m/s]	speed of sound, 298.15 K [m/s]	speed of sound, 308.15 K [m/s]
[1], x2 = 0	1260.33	1252.98	1245.78	–	–	–	1484.6	1460.1	1436.7
[1], x2 = 0.0559	1259.04	1251.78	1244.55	–	–	–	1486.9	1462.7	1439.7
[1], x2 = 0.1084	1257.8	1250.57	1243.3	–	–	–	1489.1	1464.9	1441.5
[1], x2 = 0.2076	1255.12	1247.82	1240.51	–	–	–	1494.5	1470.5	1447.2
[1], x2 = 0.2997	1252.05	1244.68	1237.3	–	–	–	1500.7	1476.9	1453.6
[1], x2 = 0.408	1247.41	1239.95	1232.47	–	–	–	1509.8	1486.1	1462.8
[1], x2 = 0.5038	1241.91	1234.36	1226.79	–	–	–	1520.1	1496.5	1473.2
[1], x2 = 0.6003	1234.21	1226.56	1218.89	–	–	–	1533.3	1510	1486.7
[1], x2 = 0.7052	1221.39	1213.67	1205.88	–	–	–	1552.3	1529.6	1506.6
[1], x2 = 0.8095	1198.77	1191.13	1183.37	–	–	–	1576.2	1555.8	1534.6
[1], x2 = 0.9018	1155.9	1148.95	1141.73	–	–	–	1595.4	1582.1	1566.6
[1], x2 = 0.9533	1104.38	1098.73	1092.63	–	–	–	1592.8	1589.4	1582.8
[2], x2 = 0	–	–	–	1.43557	1.43289	1.43018	–	–	–
[2], x2 = 0.0559	–	–	–	1.43506	1.4324	1.4297	–	–	–
[2], x2 = 0.1084	–	–	–	1.43458	1.43187	1.42918	–	–	–
[2], x2 = 0.2076	–	–	–	1.43345	1.43075	1.42808	–	–	–
[2], x2 = 0.2997	–	–	–	1.43221	1.42951	1.42683	–	–	–
[2], x2 = 0.408	–	–	–	1.43031	1.42762	1.4249	–	–	–
[2], x2 = 0.5038	–	–	–	1.42809	1.42536	1.42262	–	–	–
[2], x2 = 0.6003	–	–	–	1.42501	1.42221	1.41943	–	–	–
[2], x2 = 0.7052	–	–	–	1.41987	1.41708	1.4143	–	–	–
[2], x2 = 0.8095	–	–	–	1.41085	1.40814	1.40557	–	–	–
[2], x2 = 0.9018	–	–	–	1.39398	1.39161	1.38937	–	–	–
[2], x2 = 0.9533	–	–	–	1.37399	1.3721	1.37023	–	–	–

CCCCn1cc[n+](C)c1.N#CN=C=[N-] [1-butyl-3-methylimidazolium dicyanamide] + O
Settings	mass density, 288.15 K [kg/m3]	mass density, 298.15 K [kg/m3]	mass density, 308.15 K [kg/m3]	refractive index, 288.15 K	refractive index, 298.15 K	refractive index, 308.15 K	speed of sound, 288.15 K [m/s]	speed of sound, 298.15 K [m/s]	speed of sound, 308.15 K [m/s]
[1], x2 = 0	1066.58	1060.17	1053.83	–	–	–	1764.3	1738.1	1713.1
[1], x2 = 0.1088	1065.59	1059.16	1052.79	–	–	–	1762	1736.9	1712.4
[1], x2 = 0.1227	1065.44	1059.01	1052.64	–	–	–	1761.9	1736.8	1712.2
[1], x2 = 0.2017	1064.62	1058.16	1051.77	–	–	–	1760.9	1735.9	1711.6
[1], x2 = 0.2943	1063.46	1056.98	1050.55	–	–	–	1759.9	1735	1710.7
[1], x2 = 0.3952	1061.88	1055.35	1048.88	–	–	–	1758.3	1734	1710
[1], x2 = 0.503	1059.83	1053.24	1046.7	–	–	–	1756.8	1733	1709.4
[1], x2 = 0.5985	1057.37	1050.71	1044.09	–	–	–	1755.5	1732.1	1709
[1], x2 = 0.7032	1053.63	1046.89	1040.15	–	–	–	1751.4	1729.1	1706.9
[1], x2 = 0.805	1047.26	1040.5	1033.69	–	–	–	1738.5	1718.6	1698.2
[1], x2 = 0.9006	1035.92	1029.6	1023.11	–	–	–	1694.1	1682.2	1668.8
[1], x2 = 0.9503	1024.07	1018.75	1013.06	–	–	–	1630.6	1630.5	1627.4
[2], x2 = 0	–	–	–	1.51213	1.50893	1.50578	–	–	–
[2], x2 = 0.1088	–	–	–	1.5099	1.50673	1.50348	–	–	–
[2], x2 = 0.1227	–	–	–	1.50953	1.50631	1.50321	–	–	–
[2], x2 = 0.2017	–	–	–	1.50758	1.50443	1.50114	–	–	–
[2], x2 = 0.2943	–	–	–	1.50476	1.50161	1.49821	–	–	–
[2], x2 = 0.3952	–	–	–	1.50075	1.49756	1.49443	–	–	–
[2], x2 = 0.503	–	–	–	1.49536	1.49223	1.48897	–	–	–
[2], x2 = 0.5985	–	–	–	1.48855	1.48541	1.48225	–	–	–
[2], x2 = 0.7032	–	–	–	1.47799	1.47495	1.47147	–	–	–
[2], x2 = 0.805	–	–	–	1.46004	1.45694	1.45386	–	–	–
[2], x2 = 0.9006	–	–	–	1.42867	1.42613	1.42382	–	–	–
[2], x2 = 0.9503	–	–	–	1.39733	1.3952	1.39322	–	–	–

Reference: the NIST ThermoML archive (doi:10.1021/je201334p)
